From paper PMC10016662 (PLOS Pathogens, 2023)
Where two headings read alike, the source gives them in different places.

Target: T1, HRTV Gc (Heartland virus, UniProt J3WAX0)
T1 construct: gene GP
Assay: biochemical
Assay type: binding

T1 sequence (J3WAX0 567-999 limits assumed): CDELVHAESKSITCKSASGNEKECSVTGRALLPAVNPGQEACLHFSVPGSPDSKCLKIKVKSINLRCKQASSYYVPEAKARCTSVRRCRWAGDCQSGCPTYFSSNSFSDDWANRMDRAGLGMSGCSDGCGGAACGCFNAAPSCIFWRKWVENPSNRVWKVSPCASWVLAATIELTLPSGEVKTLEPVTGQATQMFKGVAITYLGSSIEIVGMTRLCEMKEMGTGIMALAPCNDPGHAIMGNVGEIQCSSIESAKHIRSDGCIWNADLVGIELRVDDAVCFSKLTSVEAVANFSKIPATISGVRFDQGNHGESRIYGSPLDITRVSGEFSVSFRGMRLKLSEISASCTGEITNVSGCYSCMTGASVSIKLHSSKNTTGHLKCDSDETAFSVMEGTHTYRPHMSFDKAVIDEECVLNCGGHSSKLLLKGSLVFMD

Molecule | Kd (read-out: KD) [nM] | Kd [nM]
GlcCer | < 1 | –
GalCer | 600 | –
CCCCCCCC/C=C\CCCCCCCC(=O)OC[C@H](COP(=O)([O-])OCC[N+](C)(C)C)OC(=O)CCCCCCC/C=C\CCCCCCCC [DOPC] | – | 2100
